For this assay, the target named is high affinity nicotinic receptors. The assay can be described thus: Inhibition of L-[3H]nicotine binding to mouse brain membrane preparations. The arrangement: species or system Mice (DBA strain). Particulars: 10 nM L-[3H]nicotine, 2 hr at 4° C., mouse brain membranes, Ki calculated from IC50 by method of Cheng et al. On the procedure: Mice (DBA strain) were maintained on a 12 hour light/dark cycle and were allowed free access to water and food supplied by Wayne Lab Blox, Madison, Wis. Animals used in the present studies were 60 to 90 days of age and weighed 20 to 25 g. Brain membrane preparations were obtained from pooled brain tissue of both males and females.
Mice were killed by cervical dislocation. Brains were removed and placed on an ice-cold platform. […] Protein was determined by the method of Lowry, et al., J. Biol. Chem., Vol. 193, pp. 265-275 (1951), using bovine serum albumin as the standard.
The binding of L-[^3 H]nicotine was measured using a modification of the method of Romano, et al., Science, Vol. 210, pp. 647-650 (1980) as described previously by Marks, et al., Mol. pharmacol., Vol. 30, pp. 427-436 (1986). The binding of L-[^3 H]nicotine was measured using a 2 hr. incubation at 4° C. […] Nonspecific binding was determined by inclusion of 10 μM nonradioactive nicotine in the incubations. The inhibition of L-[^3 H]nicotine binding by test compounds was determined by including one of eight different concentrations of the test compound in the incubation. […] Inhibition constants (Ki values) were calculated from the IC50 values using the method of Cheng, et al., Biochem. Pharmacol., Vol. 22, pp. 3099-3108 (1973). […]

pKi: −log10 of the molar value.

Our source for the Ki values is US5248690A, “Method for treatment of neurodegenerative diseases” (R. J. Reynolds Tobacco Company, priority 1992, dated 1993).

As to `CN1CCCC1c1ccccc1` (racemic) [1-methyl-2-phenylpyrrolidine], the pKi – broadly, −log10 of the Ki, conventionally taken in molar units – was 5.46.
